Laboratory results as given in ChEMBL document CHEMBL3244030, “2-Methoxyphenylethanolamines, potential beta-adrenergic blocking agents” (J Med Chem, 1978).
Activity calls are given as the source filed them. No cut-off for these calls is given here.

How the values were obtained:
[1] = molecular target: Beta-1 adrenergic receptor (Cavia porcellus, UniProt B0FL73); assay: Antagonist activity at beta1 adrenoceptor in guinea pig atrium assessed as inhibition of isoproterenol-induced response after 20 mins; design: species or system Cardiac atrium; conditions: read-out: pA2 (converted)
Sequence of Beta-1 adrenergic receptor (B0FL73 whole entry): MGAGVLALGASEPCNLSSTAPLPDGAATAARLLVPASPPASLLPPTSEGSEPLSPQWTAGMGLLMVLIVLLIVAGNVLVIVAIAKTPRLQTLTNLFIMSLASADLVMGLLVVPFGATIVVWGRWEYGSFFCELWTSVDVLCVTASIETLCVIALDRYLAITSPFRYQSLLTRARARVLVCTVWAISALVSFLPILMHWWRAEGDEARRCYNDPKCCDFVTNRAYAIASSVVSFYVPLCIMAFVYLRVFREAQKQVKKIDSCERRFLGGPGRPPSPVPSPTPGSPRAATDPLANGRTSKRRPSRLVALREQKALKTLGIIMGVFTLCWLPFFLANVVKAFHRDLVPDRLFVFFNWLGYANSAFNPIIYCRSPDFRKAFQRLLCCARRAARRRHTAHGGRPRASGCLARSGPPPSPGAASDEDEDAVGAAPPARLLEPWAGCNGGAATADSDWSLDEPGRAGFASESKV

[2] = molecular target: Beta-2 adrenergic receptor (Cavia porcellus, UniProt Q8K4Z4); assay: Antagonist activity at beta2 adrenoceptor in guinea pig trachea assessed as inhibition of isoproterenol-induced response after 20 mins; conditions: read-out: pA2 (converted)
Sequence of Beta-2 adrenergic receptor (Q8K4Z4 whole entry): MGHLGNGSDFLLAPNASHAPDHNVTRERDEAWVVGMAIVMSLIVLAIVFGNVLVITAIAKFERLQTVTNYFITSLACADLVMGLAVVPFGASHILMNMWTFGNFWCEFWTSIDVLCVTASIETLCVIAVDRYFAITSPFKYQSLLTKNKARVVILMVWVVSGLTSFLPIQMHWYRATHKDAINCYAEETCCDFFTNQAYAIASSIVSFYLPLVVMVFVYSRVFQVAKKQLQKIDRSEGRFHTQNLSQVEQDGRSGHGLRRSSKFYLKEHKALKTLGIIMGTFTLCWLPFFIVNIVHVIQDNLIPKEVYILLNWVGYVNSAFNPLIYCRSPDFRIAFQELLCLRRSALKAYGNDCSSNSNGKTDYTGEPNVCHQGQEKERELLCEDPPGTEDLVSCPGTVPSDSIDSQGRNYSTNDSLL

[3] = species: Cavia porcellus; assay: Selectivity ratio for beta1 adrenoceptor in guinea pig atrium over beta2 adrenoceptor in guinea pig trachea; assay type: tissue-based; conditions: Cardiac atrium
[4] = molecular target: Beta-1 adrenergic receptor (Cavia porcellus) (UniProt B0FL73); assay: Competitive inhibition of beta1 adrenoceptor in guinea pig atrium assessed as inhibition of isoproterenol-induced response after 20 mins by Schild plot analysis; conditions: Cardiac atrium
Sequence of Beta-1 adrenergic receptor (Cavia porcellus) (B0FL73 1-467): as the sequence (B0FL73 whole entry) above

[5] = molecular target: Beta-2 adrenergic receptor (Cavia porcellus) (UniProt Q8K4Z4); assay: Intrinsic activity at beta2 adrenoceptor in guinea pig atrium relative to isoproterenol; conditions: Cardiac atrium
Sequence of Beta-2 adrenergic receptor (Cavia porcellus) (Q8K4Z4 whole entry, looked up): as the sequence (Q8K4Z4 whole entry) above

[6] = molecular target: Beta-1 adrenergic receptor (Cavia porcellus) (UniProt B0FL73); assay: Intrinsic activity at beta1 adrenoceptor in guinea pig atrium relative to isoproterenol; conditions: Cardiac atrium
[7] = molecular target: Beta-2 adrenergic receptor (Cavia porcellus) (UniProt Q8K4Z4); assay: Partial agonist at beta2 adrenoceptor in guinea pig trachea
[8] = molecular target: Beta-1 adrenergic receptor (Cavia porcellus) (UniProt B0FL73); assay: Partial agonist activity at beta1 adrenoceptor in guinea pig atrium; conditions: Cardiac atrium

| SMILES | Kb [1] | Kb [2] | Selectivity ratio [3] | inhibition [4] | Intrinsic activity [5] | Intrinsic activity [6] | pD2 [7] | pD2 [8] |
| --- | --- | --- | --- | --- | --- | --- | --- | --- |
| CC(C)NCC(O)c1cccc(Br)c1 (stereo not given) | 631 nM | 1260 nM | – | – | – | – | – | – |
| COc1cc(C)ccc1C(O)CNC(C)C (stereo not given) | 10 nM | 398 nM | 40 | Active | 0.2 | 0.2 | – | – |
| Cc1ccc(C(O)CNC(C)C)cc1 (stereo not given) | 126 nM | 316 nM | – | – | – | – | – | – |
| CC(C)NCC(O)c1ccc(Br)cc1 (stereo not given) | 158 nM | 200 nM | – | – | – | – | – | – |
| Cc1cccc(C(O)CNC(C)C)c1 (stereo not given) | 794 nM | 2000 nM | – | – | – | – | – | – |
| COc1ccc(Br)cc1C(O)CNC(C)C (stereo not given) | 1480 nM | 933 nM | – | – | – | – | – | – |
| COc1ccccc1C(O)CNC(C)C (stereo not given) | 617 nM | 120 nM | – | – | 0.5 | 0.5 | 6.8 | 6.3 |
| COc1cc(Br)ccc1C(O)CNC(C)C (stereo not given) | 5.75 nM | 13.5 nM | 2 | Active | 0.2 | 0.2 | – | – |
| COc1ccc(C)cc1C(O)CNC(C)C (stereo not given) | 2510 nM | 2510 nM | – | – | – | – | – | – |
